Earlier results on three compounds are cited in patent EP4778943A1, “LONG-ACTING PARATHYROID HORMONE RECEPTOR AGONIST FUSION PROTEIN AND USE THEREOF” (Shanghai Btd-Bio Technology Co., Ltd., priority 2023, dated 2025).

For data set [1] the following is noted: continuous administration once a day for 6 months; cited from earlier work.
In another data set the test system is mice. As to conditions: continuous infusion 80 µg/kg BW/day for 2 weeks; cited from earlier work.
Data set [2] relates to TPTx (parathyroidectomy) rat model. The following applies: daily 1.2 nmol/kg (low dose) and 2.4 nmol/kg (high dose), after 4 weeks, versus model group; cited from earlier work.

Where no end group is shown, it is not given here.

As for `CC[C@H](C)[C@H](NC(=O)[C@H](CCC(=O)O)NC(=O)[C@H](CO)NC(=O)[C@@H](NC(=O)[C@@H](N)CO)C(C)C)C(=O)N[C@@H](CCC(N)=O)C(=O)N[C@@H](CC(C)C)C(=O)N[C@@H](CCSC)C(=O)N[C@@H](Cc1c[nH]cn1)C(=O)N[C@@H](CC(N)=O)C(=O)N[C@@H](CC(C)C)C(=O)NCC(=O)N[C@@H](CCCCN)C(=O)N[C@@H](Cc1c[nH]cn1)C(=O)N[C@@H](CC(C)C)C(=O)N[C@@H](CC(N)=O)C(=O)N[C@@H](CO)C(=O)N[C@@H](CCSC)C(=O)N[C@@H](CCC(=O)O)C(=O)N[C@@H](CCCNC(=N)N)C(=O)N[C@H](C(=O)N[C@@H](CCC(=O)O)C(=O)N[C@@H](Cc1c[nH]c2ccccc12)C(=O)N[C@@H](CC(C)C)C(=O)N[C@@H](CCCNC(=N)N)C(=O)N[C@@H](CCCCN)C(=O)N[C@@H](CCCCN)C(=O)N[C@@H](CC(C)C)C(=O)N[C@@H](CCC(N)=O)C(=O)N[C@@H](CC(=O)O)C(=O)N[C@H](C(=O)N[C@@H](Cc1c[nH]cn1)C(=O)N[C@@H](CC(N)=O)C(=O)N[C@@H](Cc1ccccc1)C(=O)O)C(C)C)C(C)C` [teriparatide], the “bone mineral density of L2-L4, increase” value in data set [1] is “about 5%”. Moreover, the bone mineral density entry in the data set with mice was “significant decrease”. In the case of Abaloparatide, in the data set on mice, the bone mineral density entry is recorded as “significant decrease”. Consider “TransCon PTH: long-acting PTH, generic name palopegteriparatide, trade name Yorvipath (SVSEIQLMHNLGKHLNSMERVEWLRKKLQDVHNF; also: PEG carrier attached via prodrug linker, site not given here; UniProt P01270 32-65, looked up, fragment)”, for which the bone mineral density result in data set [2] is given as “significantly decreased”.
